The subject of test [1] is dengue virus type 2. Briefly: Antiviral activity Dengue virus 2 by cell based assay. The class given is functional, organism-based.
The test system of test [2] is dengue virus type 2. Briefly: Antiviral activity against Dengue virus 2 infected in human Huh-7 cells assessed as clearance of viral RNA relative to control. On the set-up: concentration or dose not given beside the values. The test is classed as functional.
Test [3] relates to dengue virus type 2. The test is described as follows: Antiviral activity against Dengue virus 2 infected in human Huh-7 cells assessed as clearance of viral RNA at 100 uM. The test is classed as functional, organism-based.
Test [4] has as its system dengue virus type 2. Briefly: Antiviral activity against Dengue virus 2 infected in human Huh-7 cells assessed as reduction in plaque reduction relative to control. The class given is functional. On the set-up: scale not given: the % may be the effect or the level left.
Test [5] relates to dengue virus type 2. The test is described as follows: Antiviral activity against Dengue virus 2 infected in human Huh-7 cells assessed as clearance of viral RNA at 10 uM. The test is classed as functional, organism-based.
In the next test the test system is dengue virus type 1. Briefly: Antiviral activity Dengue virus 1 by cell based assay. The class given is functional, organism-based.
The subject of test [6] is dengue virus type 2. Briefly: Antiviral activity Dengue virus 2 D2Y10 by cell based assay. The class given is functional, organism-based.
The test system of the next test is dengue virus type 3. Briefly: Antiviral activity Dengue virus 3 by cell based assay. The class given is functional, organism-based.
The next test concerns dengue virus type 4. Briefly: Antiviral activity Dengue virus 4 by cell based assay. The test is classed as functional, organism-based.
The next test has as its system Zika virus. Briefly: Antiviral activity Zika virus by cell based assay. The test is classed as functional, organism-based.
In test [7] the test system is dengue virus type 2. Briefly: Antiviral activity against Dengue virus 2 infected in human Huh-7 cells assessed as inhibition of plaque formation relative to control. The test is classed as functional.
Test [8] deals with dengue virus type 2. Briefly: Antiviral activity against Dengue virus 2 D2Y10 infected in human THP-1 cells assessed as inhibition of secondary antibody dependent enhancement-driven infection relative to control. The class given is functional.

Several values for one entry are separate records, joined by “and”; a condition that tells them apart may be missing. Equal values may be shown once. Activity calls are given as the source filed them. No cut-off for these calls is given here.

Results on 19 compounds are retold here after ChEMBL document CHEMBL5505984, “Carbazole to indolazepinone scaffold morphing leads to potent cell-active dengue antivirals” (Eur J Med Chem, 2024).

What is called EC50 is the midpoint of the concentration-response curve.

Consider `N/C(=N\O)c1cccc(NC(=O)c2cn(Cc3cccc(Br)c3)c3ccc(-c4cccc(/C(N)=N/O)c4)cc23)c1`, for which the EC50 in the test on dengue virus type 2 [1] was 1800 nM. In addition, the Activity entry in the test on dengue virus type 2 [2] was “>=95% and >95%”.

Take `N/C(=N\O)c1cccc(NC(=O)c2cn(Cc3ccc(Br)cc3)c3ccc(-c4cccc(/C(N)=N/O)c4)cc23)c1`: the EC50 in the test with dengue virus type 2 [1] amounted to 4480 nM. Moreover, in the test with dengue virus type 2 [2], the Activity was above 95%.

In the test with dengue virus type 2 [1], `N/C(=N\O)c1cccc(-c2ccc3c(C(=O)N4CCN(c5cccc(/C(N)=N/O)c5)CC4)cn(Cc4ccc(Br)cc4)c3c2)c1` returned a concentration for a half-maximal effect (EC50) of 1130 nM. For the same compound, the outcome in the test with dengue virus type 2 [3] was inactive.

Take `N/C(=N\O)c1cccc(-c2cc3c4c(cn(Cc5cccc(Br)c5)c4c2)CCN(Cc2ccc(/C(N)=N/O)s2)C3=O)c1`: in the test with dengue virus type 2 [4], the Activity is given as below 85%.

In turn, `N/C(=N\O)c1cccc(CNC(=O)c2cn(Cc3cccc(Br)c3)c3cc(-c4cccc(/C(N)=N/O)c4)ccc23)c1` showed a half-maximal effective concentration (EC50) in the test on dengue virus type 2 [1] of 6900 nM. For the same compound, the Activity in the test on dengue virus type 2 [2] is listed as above 95%.

Regarding `N/C(=N\O)c1cccc(NC(=O)c2cn(CCn3cc(Br)cn3)c3ccc(-c4cccc(/C(N)=N/O)c4)cc23)c1`, in the test with dengue virus type 2 [1], the response was half-maximal at 1830 nM (EC50). The outcome in the test on dengue virus type 2 [5] was inactive.

In the case of `N/C(=N\O)c1ccc(CN2CCc3cn(Cc4ccc(Br)cc4)c4cc(-c5ccc(/C(N)=N/O)s5)cc(c34)C2=O)cc1`, the EC50 in the test on dengue virus type 1 is 790 nM; in the test with dengue virus type 2 [1] it was 610 nM; with dengue virus type 2 [6] it was 330 nM; in the test on dengue virus type 3, 160 nM; in the test with dengue virus type 4, 2250 nM; with Zika virus, 1420 nM. Besides, the “inhibition (INH)” value is given as 100% with dengue virus type 2 [7] and 60% in the test with dengue virus type 2 [8]. Besides, the Activity in the test on dengue virus type 2 [2] is reported as above 95%.

In the test on dengue virus type 2 [1], `N/C(=N\O)c1cccc(-c2ccc3c(C(=O)N4CCN(c5cccc(/C(N)=N/O)c5)CC4)cn(Cc4cccc(Br)c4)c3c2)c1` displayed an EC50 of 1230 nM. In the test on dengue virus type 2 [3], the outcome was inactive.

Turning to `N/C(=N\O)c1ccc(CN2CCc3cn(Cc4cccc(Br)c4)c4cc(-c5ccc(/C(N)=N/O)cc5)cc(c34)C2=O)cc1`, the Activity in the test on dengue virus type 2 [4] was below 85%.

For `C#C[C@@]1(O)[C@H](O)[C@@H](CO)O[C@H]1n1ccc2c(N)ncnc21`, the half-maximal effective concentration (EC50) with dengue virus type 1 was 860 nM; in the test with dengue virus type 2 [1], 640 nM; in the test with dengue virus type 2 [6] it was 780 nM; in the test on dengue virus type 3 it was 870 nM; in the test with dengue virus type 4, 110 nM; with Zika virus it was 120 nM. Also, the “inhibition (INH)” value in the test with dengue virus type 2 [7] and in the test on dengue virus type 2 [8] was 100% throughout.

For `N/C(=N\O)c1cccc(NC(=O)c2nn(Cc3cccc(Br)c3)c3ccc(-c4cccc(/C(N)=N/O)c4)cc23)c1`, the EC50 in the test on dengue virus type 2 [1] was 2190 nM. For the same compound, the outcome with dengue virus type 2 [2] was inactive.

In the test on dengue virus type 2 [1], `N/C(=N\O)c1cccc(CN2CCc3cn(Cc4cccc(Br)c4)c4cc(-c5cccc(/C(N)=N/O)c5)cc(c34)C2=O)c1` showed an EC50 of 1350 nM. Besides, in the test with dengue virus type 2 [2], the Activity is reported as above 95%.

Turning to `N/C(=N\O)c1ccc(CN2CCc3cn(Cc4ccc(Br)cc4)c4cc(-c5cccc(/C(N)=N/O)c5)cc(c34)C2=O)cc1`, the EC50 in the test with dengue virus type 1 turned out to be 1260 nM; in the test with dengue virus type 2 [1], 100 nM; with dengue virus type 2 [6] it was 100 nM; in the test on dengue virus type 3, 120 nM; in the test with dengue virus type 4, 950 nM; with Zika virus, 1760 nM. Moreover, the figures for the “inhibition (INH)” value in the test on dengue virus type 2 [7] and in the test with dengue virus type 2 [8] were 97% and 100%, respectively. Besides, the Activity in the test on dengue virus type 2 [2] is listed as above 95%.

As to `N/C(=N\O)c1ccc(CN2CCc3cn(Cc4cccc(Br)c4)c4cc(-c5cccc(/C(N)=N/O)c5)cc(c34)C2=O)cc1`, the EC50 in the test on dengue virus type 1 is 1030 nM; with dengue virus type 2 [1] it was 660 nM; with dengue virus type 2 [6] it was 380 nM; in the test on dengue virus type 3 it was 1440 nM; in the test with dengue virus type 4 it was 1240 nM; with Zika virus, 3400 nM. Besides, the “inhibition (INH)” value with dengue virus type 2 [7] came to 95%; in the test with dengue virus type 2 [8], 100%. For the same compound, the Activity in the test on dengue virus type 2 [2] is above 95%.

As to `N/C(=N\O)c1cccc(-c2ccc3c(C(=O)N4CCN(c5cccc(/C(N)=N/O)c5)CC4)cn(Cc4ccc(Br)nc4)c3c2)c1`, a half-maximal response in the test on dengue virus type 2 [1] (EC50) required 1000 nM. Besides, the outcome in the test on dengue virus type 2 [3] was inactive.

Turning to `N/C(=N\O)c1ccc(CNC(=O)c2cn(Cc3cccc(Br)c3)c3ccc(-c4cccc(/C(N)=N/O)c4)cc23)cc1`, a half-maximal response in the test on dengue virus type 2 [1] (EC50) required 2270 nM. The Activity in the test on dengue virus type 2 [2] was above 95%.

Turning to `N/C(=N\O)c1cccc(NC(=O)c2nn(Cc3cccc(Br)c3)cc2NC(=O)c2cccc(/C(N)=N/O)c2)c1`, a half-maximal effect in the test on dengue virus type 2 [1] (EC50) was put at 7020 nM.

As for `N/C(=N\O)c1ccc(CN2CCc3cn(Cc4ccc(Br)nc4)c4cc(-c5cccc(/C(N)=N/O)c5)cc(c34)C2=O)cc1`, the EC50 in the test on dengue virus type 2 [1] was 960 nM. Also, the Activity in the test on dengue virus type 2 [2] is reported as above 95%.

As for `N/C(=N\O)c1cccc(CNC(=O)c2cn(Cc3cccc(Br)c3)c3ccc(-c4cccc(/C(N)=N/O)c4)cc23)c1`, the EC50 in the test on dengue virus type 2 [1] was found to be 1000 nM. Besides, the Activity in the test with dengue virus type 2 [2] is above 95%.
